# Measured values as given in patent US5656651A, “Androgenic directed compositions” (Biophysica Inc., priority 1995, dated 1997).
# Several values for one entry are separate records, joined by “and”; a condition that tells them apart may be missing. Equal values may be shown once. Read-outs that look alike come from different tables or passages of the source.
# Columns and labels:
# human androgen receptors [1] = target: T1, human androgen receptors (Homo sapiens, UniProt P10275); test: Androgen activity of anti-androgens in CVI-3.9.2 cells (CAT activity); type: cell-based
# T1 construct: expressed in transfected cells; host or cells: CV-1 monkey cells (clone CV1-3.9.2)
# T1 sequence (P10275 whole entry): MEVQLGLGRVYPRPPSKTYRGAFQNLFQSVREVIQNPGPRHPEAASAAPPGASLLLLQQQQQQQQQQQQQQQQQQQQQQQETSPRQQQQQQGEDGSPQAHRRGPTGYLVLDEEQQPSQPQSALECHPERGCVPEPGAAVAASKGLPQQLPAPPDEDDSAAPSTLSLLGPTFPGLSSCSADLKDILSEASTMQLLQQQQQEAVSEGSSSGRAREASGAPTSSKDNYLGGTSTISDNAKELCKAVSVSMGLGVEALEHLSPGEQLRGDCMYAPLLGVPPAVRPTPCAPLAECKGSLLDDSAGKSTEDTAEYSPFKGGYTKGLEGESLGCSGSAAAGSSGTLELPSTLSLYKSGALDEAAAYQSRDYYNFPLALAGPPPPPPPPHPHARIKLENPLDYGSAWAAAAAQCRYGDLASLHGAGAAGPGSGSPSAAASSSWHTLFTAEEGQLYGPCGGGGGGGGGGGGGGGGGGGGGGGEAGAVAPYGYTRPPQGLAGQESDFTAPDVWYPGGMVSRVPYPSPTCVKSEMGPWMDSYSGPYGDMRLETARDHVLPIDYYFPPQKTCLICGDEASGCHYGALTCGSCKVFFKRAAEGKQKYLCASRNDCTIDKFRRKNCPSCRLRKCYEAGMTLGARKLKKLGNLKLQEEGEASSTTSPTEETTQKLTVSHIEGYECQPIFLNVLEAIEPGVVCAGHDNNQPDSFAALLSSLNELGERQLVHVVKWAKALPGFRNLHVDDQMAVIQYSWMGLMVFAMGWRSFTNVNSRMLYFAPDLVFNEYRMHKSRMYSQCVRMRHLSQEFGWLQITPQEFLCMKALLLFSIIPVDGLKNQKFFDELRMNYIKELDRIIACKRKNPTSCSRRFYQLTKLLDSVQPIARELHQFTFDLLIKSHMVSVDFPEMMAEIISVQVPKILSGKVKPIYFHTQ
# Protocol: (§1) The androgenic and anti-androgenic activity of the current and novel compounds was tested in a specific assay described by Fuhrman et al. [J. Steroid Biochem. Molec. […] This assay uses CV-1 cells derived from monkeys transfected with human androgen receptors.
# human androgen receptors [2] = target: T1, human androgen receptors; test: Transactivation assay, anti-androgenic potency, CV1-3.9.2 cells; type: cell-based; conditions: stimulation with 0.1 nM testosterone
# Protocol: as §1
# [3] = test system: HLF-1 Normal Lung Diploid; test: Inhibition of cell proliferation at 72 hours, HLF-1; type: cell-based; conditions: Homo sapiens, HLF1
# Protocol: (§2) All compounds were screened on a panel of normal and cancer human cell lines, including human prostate cancer cell lines, PC-3, DU-145, and LnCAP.
# (§3) Cells (10^4 /well) were plated on 96 well plates with the following controls: no cells and toxic control (1×10^-3 M sodium dodecyl sulfate (SDS). The drug was diluted in ethanol and added directly to the wells. Plates were incubated at 37° C. under 5% carbon dioxide in sterile air, in a humidified incubator for 72 hours. A solution (50 μl of 2,3-bis-(methoxy-4-nitro-5-sulfophenyl)-5-[(phenylamino)carbonyl]-2H-tetrazolium hydroxide (XTT), 1 mg/mL) in phosphate buffered saline (PBS, 100 mM) was added to each well, In the presence of viable cells, this colorless clear solution is enzymatically transformed to give a pink coloration, read at 450 nm using a microplate reader (Molecular Devices Thermomax). The inhibition of cell growth was measured by hemocytometer, counting cell viability. (Table I)
# [4] = test system: CHO Chinese Hamster Ovary; test: Inhibition of cell proliferation at 72 hours, CHO; type: cell-based; conditions: Cricetulus griseus
# [5] = test system: PC-3 Human Prostate (few androgen receptors); test: Inhibition of cell proliferation at 72 hours, PC-3; type: cell-based; conditions: PC-3, 72 hours
# Protocol: as §2, §3
# PC-3 human cell line = test: Relative growth inhibition after 6 days; type: cell-based; conditions: for activity at 10 µM: Homo sapiens, read-out: No. of cells remaining expressed as a % of control
# Protocol: as §2
# as §3, with “Plates were incubated at 37° C. under 5% carbon dioxide in sterile air, in a humidified incubator for 72 hours.” left out
# [6] = test system: Ln CAP Human Prostate (with androgen receptors); test: Inhibition of cell proliferation at 72 hours, Ln CAP; type: cell-based; conditions: LNCaP
# Protocol: as §2, §3
# [7] = test system: Molt-4 Human T-cell Leukemia; test: Inhibition of cell proliferation at 72 hours, Molt-4; type: cell-based; conditions: Molt-4, 72 hours
# Protocol: as §2, §3
# MCF-7 Human Breast = test: Inhibition of cell proliferation at 72 hours, MCF-7; type: cell-based; conditions: MCF7, MCF-7, 72 hours
# Protocol: as §2, §3
# L-1210 Mouse Leukemia = test: Inhibition of cell proliferation at 72 hours, L-1210; type: cell-based; conditions: L1210, L-1210, 72 hours
# [8] = test system: MCF-7/ADR Human Breast (adriamycin resistant); test: Inhibition of cell proliferation at 72 hours, MCF-7/ADR; type: cell-based; conditions: NCI/ADR-RES, MCF-7/ADR (adriamycin resistant)
# Protocol: as §2, §3
# Ovcar 3 Human Ovary = test: Inhibition of cell proliferation at 72 hours, Ovcar 3; type: cell-based; conditions: Ovcar 3, 72 hours
# Protocol: as §2, §3
# [9] = test system: DU-145 Human Prostate (receptor poor); test: Inhibition of cell proliferation at 72 hours, DU-145; type: cell-based; conditions: DU-145, 72 hours
# Protocol: as §2, §3
# [10] = test system: NH DF Normal Dermal Fibroblast; test: Inhibition of cell proliferation at 72 hours, NH DF; type: cell-based; conditions: Homo sapiens, NHDF
# Protocol: as §2, §3
# [11] = test system: panel of normal and cancer human cell lines; test: Cytotoxicity screen on panel of normal and cancer cell lines; type: cell-based
# Protocol: as §2, §3
# androgen receptors = conditions: background statement; cited from earlier work
# glucocorticoid receptors = conditions: background statement; cited from earlier work
# progestin receptors = conditions: background statement; cited from earlier work
# [12] = 10^-5 M, cell density 10^4/well
smiles,measurement,setting,value
"CC1(C)OCC(CN2C(=S)N(c3ccc(C#N)c(C(F)(F)F)c3)C(=O)C2(C)C)O1 (centres unmarked) [BP134, 4-[4,4-dimethyl-3-[2',2'-dimethyl-1',3'-dioxolane-4'-methyl)-5-oxo-2-thioxo-1-imidazolidinyl]-2-trifluoromethyl-benzonitrile]",CAT Activity,human androgen receptors [1]; 1 μM,1600 cpm
same,IC50,human androgen receptors [2],0.021 µM
"CC1(C)C(=O)N(c2ccc(C#N)c(C(F)(F)F)c2)C(=S)N1CC(O)CO (centres unmarked) [BP135, 4-[3-(2',3'-dihydroxypropyl)-4,4-dimethyl-5-oxo-2-thioxo-1-imidazolidinyl]-2-trifluoromethyl-benzonitrile]",CAT Activity,human androgen receptors [1]; 1 μM,1900 cpm
same,IC50,human androgen receptors [2],0.158 µM
"CC(C)(C)OC(=O)NCCN1C(=S)N(c2ccc(C#N)c(C(F)(F)F)c2)C(=N)C1(C)C [BP136, 4-[3-(2'-(N-t-butoxycarbonyl)-aminoethyl)-4,4-dimethyl-5-imino-2-thioxo-1-imidazolidinyl]-2-trifluoromethyl-benzonitrile]",CAT Activity,human androgen receptors [1]; 1 μM,1800 cpm
same,IC50,human androgen receptors [2],0.2 µM
"CC(C)(C)OC(=O)NCCN1C(=S)N(c2ccc(C#N)c(C(F)(F)F)c2)C(=O)C1(C)C [BP137, 4-[3-(2'-N-(t-butoxycarbonyl)-aminoethyl)-4,4-dimethyl-5-oxo-2-thioxo-1-imidazolidinyl]-2-trifluoromethyl-benzonitrile]",CAT Activity,human androgen receptors [1]; 1 μM,2000 cpm
same,IC50,human androgen receptors [2],0.02 µM
"CC1(C)C(=O)N(c2ccc(C#N)c(C(F)(F)F)c2)C(=S)N1CCN [BP138, 4-[3-(2'-aminoethyl) 4,4-dimethyl-5-oxo-2-thioxo-1-imidazolidinyl]-2-trifluoromethyl-benzonitrile]",CAT Activity,human androgen receptors [1]; 1 μM,1600 cpm
same,IC50,human androgen receptors [2],0.139 µM
"CC(=O)NCCN1C(=S)N(c2ccc(C#N)c(C(F)(F)F)c2)C(=O)C1(C)C [BP139, 4-[3-(2'-N-acetylaminoethyl)-4,4-dimethyl-5-oxo-2-thioxo-1-imidazolidinyl]-2-trifluoromethyl-benzonitrile]",CAT Activity,human androgen receptors [1]; 1 μM,1500 cpm
same,IC50,human androgen receptors [2],0.239 µM
"CC1(C)OCC(CN2C(=S)N(c3ccc(C#N)c(C(F)(F)F)c3)C(=N)C2(C)C)O1 (centres unmarked) [BP163, 4-[4,4-dimethyl-3-(2',2'-dimethyl-1',3'-dioxolane-4'-methyl)-5-imino-2-thioxo-1-imidazolidinyl]-2-trifluoromethyl-benzonitrile]",CAT Activity,human androgen receptors [1]; 1 μM,2100 cpm
same,IC50,human androgen receptors [2],0.217 µM
"C=CCN1C(=S)N(c2ccc(C#N)c(C(F)(F)F)c2)C(=O)C1(C)C [BP-82, 4-[4,4-dimethyl-5-oxo-3-(2'-propenyl)-2-thioxo-1-imidazolidinyl]-2-trifluoromethyl-benzonitrile]",IC50,[3],39 µM
same,IC50,[4],34.5 µM
same,CAT Activity,human androgen receptors [1]; 1 μM,1300 cpm
same,IC50,[5],31.5 µM
same,activity at 10 µM,PC-3 human cell line; [12],~70%
same,cytostatic effect in PC-3 human cell line,"PC-3 human cell line; PC-3, Table II",cytostatic effect
same,IC50,human androgen receptors [2],~0.0065 µM
same,IC50,[6],66 µM
same,IC50,[7],48.8 µM
same,IC50,MCF-7 Human Breast,50 µM
same,IC50,L-1210 Mouse Leukemia,25 µM
same,IC50,[8],15.1 µM
same,IC50,Ovcar 3 Human Ovary,96.5 µM
same,IC50,[9],13.9 µM
same,IC50,[10],91.7 µM
"CC(=O)O[C@H]1C(=O)[C@]2(C)[C@@H](OC(=O)NCCN3C(=S)N(c4ccc(C#N)c(C(F)(F)F)c4)C(=O)C3(C)C)C[C@H]3OC[C@@]3(OC(C)=O)[C@H]2[C@H](OC(=O)c2ccccc2)[C@]2(O)C[C@H](OC(=O)[C@H](O)[C@@H](NC(=O)c3ccccc3)c3ccccc3)C(C)=C1C2(C)C [BP-196, 7-{imidazolidinyl-5"",5""-dimethyl-4""-oxo-3""-[4""'-cyano-3'""-trifluoromethylphenyl-imidazolidinyl]-2""-thioxo-1""-ethylcarbamoxy}paclitaxel]",IC50,[3],8.06 µM
same,IC50,[4],8.76 µM
same,IC50,[5],0.0372 µM
same,toxicity vis-a-vis normal cells,[11]; normal cells,quite high
same,Observation (relative growth inhibition),"PC-3 human cell line; 10^-5 M, after 6 days, cell density 10^4/well",cytotoxic cell death
same,activity at 10 µM,PC-3 human cell line; [12],~100%
same,IC50,[6],0.131 µM
same,IC50,[7],0.147 µM
same,IC50,MCF-7 Human Breast,0.989 µM
same,IC50,L-1210 Mouse Leukemia,0.97 µM
same,IC50,[8],10 µM
same,IC50,Ovcar 3 Human Ovary,0.05 µM
same,IC50,[9],0.867 µM
same,IC50,[10],0.107 µM
"C#CCN1C(=S)N(c2ccc(C#N)c(C(F)(F)F)c2)C(=O)C1(C)C [BP-199, 4-[4,4-dimethyl-3-(2'-propynyl)-5-oxo-2-thioxo-1-imidazolidinyl]-2-trifluoromethyl-benzonitrile]",IC50,[3],> 100 µM
same,IC50,[4],12.8 µM
same,IC50,[5],0.132 µM
same,cytotoxicity in human prostate cancer lines containing at least some androgen receptors,[11]; human prostate cancer lines,most cytotoxic
same,cytotoxicity in a variety of other human transformed and normal cells,[11]; other human transformed and normal cells,low cytotoxicity
same,activity at 10 µM,PC-3 human cell line; [12],~50%
same,IC50,human androgen receptors [2],0.015 µM
same,IC50,[6],0.82 µM
same,IC50,[7],> 100 µM
same,IC50,MCF-7 Human Breast,100 µM
same,IC50,L-1210 Mouse Leukemia,11 µM
same,IC50,[8],10 µM
same,IC50,Ovcar 3 Human Ovary,> 100 µM
same,IC50,[9],85.1 µM
same,IC50,[10],> 100 µM
CC1(C)C(=O)N(c2ccc(C#N)c(C(F)(F)F)c2)C(=S)N1CCc1c[nH]cn1 [BP-213],activity at 10 µM,PC-3 human cell line; [12],~40%
CC(O)(CS(=O)(=O)c1ccc(F)cc1)C(=O)Nc1ccc(C#N)c(C(F)(F)F)c1 (centres unmarked) [Casodex],binding to androgen receptors (sufficiency for complete blockage),androgen receptors,do not bind sufficiently to androgen receptors to achieve their complete blockage
CC(=O)O[C@]1(C(C)=O)CC[C@H]2[C@@H]3C=C(Cl)C4=CC(=O)[C@@H]5C[C@@H]5[C@]4(C)[C@H]3CC[C@@]21C [Cyproterone Acetate],binding to glucocorticoid receptors,glucocorticoid receptors,binds to the glucocorticoid and progestin receptors
same,binding to progestin receptors,progestin receptors,binds to the glucocorticoid and progestin receptors
"C[C@]1(O)CC[C@H]2[C@@H]3CCC4=CC(=O)CCC4=C3C=C[C@@]21C [R1881, reference compound]",CAT Activity,human androgen receptors [1],5400 cpm and 5600 cpm and 6700 cpm
"CC1(C)C(=O)N(c2ccc(C#N)c(C(F)(F)F)c2)C(=S)N1CCCCO [RU59063, 4-[4,4-dimethyl-3-(4-hydroxybutyl)-5-oxo-2-thioxo-1-imidazolidinyl]-2-trifluoromethyl-benzonitrile, reference compound]",CAT Activity,human androgen receptors [1]; 1 μM,2600 cpm
same,IC50,human androgen receptors [2],0.023 µM
